Experimental findings from patent US7851474B2, “Dipiperazinyl ketones and related analogues” (Neurogen Corporation, priority 2005, dated 2010) are described below.

The target in the assay is T1, chimeric human H3 receptor (Homo sapiens, UniProt Q9Y5N1, E19D).
T1 construct: made in house; host or cells: Sf9 insect cells (baculovirus infection); P2 membrane preparation
The assay can be described thus: Chimeric human H3 receptor screening GTP binding assay (inhibition of histamine-stimulated GTP-gamma35S binding, Example 8). In kind it is biochemical. Conditions: 1 h, read-out: percent inhibition of agonist-induced GTP-gammaS binding to H3. A digest of the protocol:
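Sf9 membranes co-expressing the chimeric receptor and a heterotrimeric G-protein (35 μg protein) in Tris pH 7.4 buffer with 10 μM GDP; compound at 4 μM plus 1 μM histamine, 125 pM GTP-gamma35S, 60 min at room temperature. Filter-bound radioactivity read; non-specific binding defined with 10 uM GTP-gammaS; percent inhibition of histamine signal.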
(In general: GTPγS is a poorly hydrolysed GTP analogue; its binding reports G protein activation.)

The mark [1] stands for this setting: Table II, "+" in the column headed Ki, assay of Example 8.
Setting [2] is: "+" in Ki of Table II, assay of Example 8.

Read-outs that look alike come from different tables or passages of the source.

T1 sequence (Q9Y5N1 with tags, fused parts or gaps E19D): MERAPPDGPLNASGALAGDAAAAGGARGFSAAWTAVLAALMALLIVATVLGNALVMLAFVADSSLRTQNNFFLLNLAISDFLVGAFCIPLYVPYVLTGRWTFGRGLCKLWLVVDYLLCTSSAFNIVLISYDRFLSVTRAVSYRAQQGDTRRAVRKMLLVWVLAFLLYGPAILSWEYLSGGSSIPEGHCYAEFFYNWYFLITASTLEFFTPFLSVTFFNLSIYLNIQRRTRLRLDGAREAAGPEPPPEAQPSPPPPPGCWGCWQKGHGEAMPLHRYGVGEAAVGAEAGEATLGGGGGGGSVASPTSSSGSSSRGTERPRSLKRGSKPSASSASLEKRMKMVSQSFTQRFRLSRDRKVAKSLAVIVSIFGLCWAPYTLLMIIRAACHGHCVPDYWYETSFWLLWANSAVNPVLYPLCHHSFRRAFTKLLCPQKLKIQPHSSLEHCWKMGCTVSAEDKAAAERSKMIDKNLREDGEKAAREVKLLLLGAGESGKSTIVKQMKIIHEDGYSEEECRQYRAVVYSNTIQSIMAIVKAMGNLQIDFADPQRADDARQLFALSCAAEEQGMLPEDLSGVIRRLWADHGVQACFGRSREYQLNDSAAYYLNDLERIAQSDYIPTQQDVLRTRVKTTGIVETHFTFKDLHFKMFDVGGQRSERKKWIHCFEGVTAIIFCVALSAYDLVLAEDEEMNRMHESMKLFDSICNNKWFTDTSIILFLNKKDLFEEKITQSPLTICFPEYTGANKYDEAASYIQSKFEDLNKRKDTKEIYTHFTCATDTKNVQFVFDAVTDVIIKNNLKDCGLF

In the case of `O=C(Cc1ccccc1C(F)(F)F)N1CCN(CC(=O)N2CCN(C3CCC3)CC2)CC1` [Compound 622, 1-cyclobutyl-4-[(4-{[2-(trifluoromethyl)phenyl]acetyl}piperazin-1-yl)acetyl]piperazine], the inhibition (as a rule, the relative decrease from the control value, in per cent) at 4 µM under setting [1] was above 90%.
Take `Cc1cccc(C(=O)N2CCN(CC(=O)N3CCN(C4CCC4)CC3)CC2)c1F` [Compound 703, 1-cyclobutyl-4-{[4-(2-fluoro-3-methylbenzoyl)piperazin-1-yl]acetyl}piperazine]: under setting [1], the inhibition at 4 µM was above 90%.
Regarding `COc1cccc(C(=O)N2CCN(CC(=O)N3CCN(C4CCC4)CC3)CC2)c1` [Compound 757, 1-cyclobutyl-4-{[4-(3-methoxybenzoyl)piperazin-1-yl]acetyl}piperazine], the inhibition at 4 µM under setting [1] is above 90%.
Consider `O=C(CN1CCN(C(=O)c2ccccc2C(F)(F)F)CC1)N1CCN(C2CCC2)CC1` [Compound 579, 1-cyclobutyl-4-({4-[2-(trifluoromethyl)benzoyl]piperazin-1-yl}acetyl)piperazine], for which the inhibition at 4 µM under setting [1] is above 90%.
Consider `O=C(/C=C/c1cccc(F)c1F)N1CCN(CC(=O)N2CCN(C3CCC3)CC2)CC1` [Compound 516, 1-cyclobutyl-4-({4-[(2E)-3-(2,3-difluorophenyl)prop-2-enoyl]piperazin-1-yl}acetyl)piperazine], for which, under setting [2], the inhibition at 4 µM was above 90%.
On the same count and under the same terms, to `COc1cscc1C(=O)N1CCN(CC(=O)N2CCN(C3CCC3)CC2)CC1` [Compound 561, 1-cyclobutyl-4-({4-[(4-methoxy-3-thienyl)carbonyl]piperazin-1-yl}acetyl)piperazine] belongs above 90%.
Take `CCC(C(=O)N1CCN(CC(=O)N2CCN(C3CCC3)CC2)CC1)c1ccc(OC)cc1` (centres unmarked) [Compound 575, 1-cyclobutyl-4-({4-[2-(4-methoxyphenyl)butanoyl]piperazin-1-yl}acetyl)piperazine]: the inhibition at 4 µM under setting [1] was above 90%.
`O=C(CN1CCN(C(=O)c2ccc(Cl)cc2)CC1)N1CCN(C2CCC2)CC1` [Compound 354, 1-(4-chlorobenzoyl)-4-[2-(4-cyclobutylpiperazin-1-yl)-2-oxoethyl]piperazine]: the inhibition at 4 µM (assay described in Example 8, symbol + in column headed Ki of Table II) is above 90%.
